# From US9073985B2, “Methods and products for treating proliferative diseases” (The Regents of the University of Colorado, a body corporate, priority 2008, dated 2015)
# Test system: melanoma cells
# Test: In vitro treatment of tumor cells in culture, flow cytometry (cell cycle analysis, cell death)
# Format: cell-based
# Settings: melanoma cells treated in vitro
# Description: Tumor cells (B16.F1, NIT-1, or MCF7) were thawed from liquid nitrogen. The tumor cells were transferred into a 15 milliliter (ml) conical tube using a sterile bulb pipette. Using a balance, the tubes were balanced with cells and spun in the centrifuge. The liquid was removed using the vacuum, leaving the pellet of cells. The cells were mixed using two mls of the RPMI. In a 24 well plate, 1 ml of RPMI was placed in each well. One ml of cells was placed into the first well and the second ml was missed into the second well, then one ml was transferred from the second well into the third. The process was repeated until one ml will remain for the last well (serial dilutions). After two to three days the cells were confluent enough to transfer from a well into a flask. After around 24 hours the treatments were added to the appropriate flasks (control, chloroquine, Avastin, both). After 48 hrs. the cells were stained using lysotracker and propidium idodide. The plate was run in the flow cytometer to check the growth arrest and the amount of lysosomic activity as well as the amount of cell death.
substance,measurement,value
"avastin: humanized monoclonal antibody against VEGF-A, trade name Avastin, Genentech/Roche",growth arrest by cell cycle analysis,growth arresting the melanoma cells in G0-G1 phase
